US20200291100A1, “TREATMENT OF AGE-RELATED AND MITOCHONDRIAL DISEASES BY INHIBITION OF HIF-1 ALPHA FUNCTION” (President and Fellows of Harvard College, priority 2012, published 2020)
Entries after “also recorded” stand apart in the source; their conditions may differ.

What was measured:
TFAM promoter = TFAM promoter luciferase assay in primary WT myoblasts treated with DMOG; format: cell-based, mouse; settings: DMOG versus DMSO
Procedure: TFAM promoter, VHL promoter, HRE and c-Myc activity were determined using a luciferase-based system. Luciferase activity was measured using the Dual-Luciferase Reporter Assay System (Promega) with Renilla as the reference.
TFAM promoter activity was evaluated using a TFAM promotes-luc plasmid. A fragment of the mouse Tfam promoter (1.4 kb upstream of the coding sequence) was cloned into a pGL4.15 vector (Promega). Luciferase activity was measured using the Dual-Luciferase Reporter Assay System (Promega) with Renilla as the reference 48 h after transfection.
c-Myc was previously shown to directly bind to the TFAM promoter in cancer cells (Li et al., 2005) and consistent with this report, it was observed that knockdown of c-Myc in primary myoblasts leads to decreased TFAM promoter activity (FIG. 16E). Mutation of the c-Myc consensus sequence, CACGTG, present in the TFAM promoter decreased the promoter activity by about half of the full length promoter (FIG. 16F). […] Next it was tested whether c-Myc binding site was required for SIRT1's ability to induce TFAM promoter activity. Overexpression of SIRT1 in primary myoblasts lead to an increase in the full length TFAM promoter activity, however disruption of c-Myc binding site was sufficient to completely prevent the ability of SIRT1 to induce TFAM promoter activity (FIG. 16H). […]

SIRT1 KO mice = experiment: NMN treatment of inducible SIRT1 KO mice; format: in vivo, mouse; settings: skeletal muscle of SIRT1 KO versus WT mice
Procedure: Whole body adult-inducible SIRT1 knockout mice were treated with tamoxifen for 5 weeks and the efficiency of deletion in DNA from tail samples was determined by PCR. Animals were then maintained on regular diet for 4 months. For the fasting experiments, mice were fasted for 16 hrs prior to sacrifice. All animal care followed the guidelines and was approved by the Institutional Animal Care and Use Committees (IACUCs) at Harvard
The inducible SIRT1 KO mouse allowed the testing of the involvement of SIRT1 in the effects of NMN in vivo.
C57BL/6J mice of 6, 22, or 30 months of age were obtained from the National Institutes of Aging mouse aging colony. Additionally 22 months old caloric restricted mice were also obtained from the National Institutes of Aging mouse aging colony. EGLN1 KO, SIRT1 KO and SIRT1 OE mice were generated as previously described (Minamishima et al., 2008; Price et al., 2012). […]
RNA from skeletal muscle tissue and C2C12 cells were extracted with RNeasy mini kit (Qiagen) according to the instructions and quantified using the NanoDrop 1000 spectrophotometer (Thermo Scientific). cDNA was synthesized with the iSCRIP cDNA synthesis kit (BioRad) using 600 ng of RNA. Quantitative RT-PCR reactions were performed using 1 μM of primers and LightCycler® 480 SYBR Green Master (Roche) on an LightCycler® 480 detection system (Roche). […]

[1] = test system: 6- and 22-month-old C57BL/6J mice; experiment: NMN treatment of 6- and 22-month-old mice, skeletal muscle readouts; format: in vivo, mouse; settings: NMN for one week
Description: C57BL/6J mice of 6, 22, or 30 months of age were obtained from the National Institutes of Aging mouse aging colony. Additionally 22 months old caloric restricted mice were also obtained from the National Institutes of Aging mouse aging colony. EGLN1 KO, SIRT1 KO and SIRT1 OE mice were generated as previously described (Minamishima et al., 2008; Price et al., 2012). Mice were acclimated for at least one-week prior to sacrifice. 3, 6, 22 and 24-month-old mice were given interperitoneal (IP) injections of 500 mg NMN/kg body weight per day or the equivalent volume of PBS for 7 consecutive days at 5:00 pm and 7:00 am on day 8 and sacrificed 4 hr after last injection.
Cytochrome c oxidase activity was polarographically determined based on the 02 consumption upon cytochrome c oxidation, as previously described (Brautigan et al., 1978). The reaction was carried out at 25° C. in 1.3 mL of standard respiratory medium (as in mitochondrial respiration) supplemented with 2 μM rotenone, 10 μM oxidized cytochrome c, 0.3 mg TritonX-100. Following addition of the sample, the reaction was initiated by adding 5 mM ascorbate plus 0.25 mM tetramethylphenylene-diamine (TMPD).
ATP content was measured with a commercial kit according to the manufacturer's instructions (Roche).
RNA from skeletal muscle tissue and C2C12 cells were extracted with RNeasy mini kit (Qiagen) according to the instructions and quantified using the NanoDrop 1000 spectrophotometer (Thermo Scientific). cDNA was synthesized with the iSCRIP cDNA synthesis kit (BioRad) using 600 ng of RNA. Quantitative RT-PCR reactions were performed using 1 μM of primers and LightCycler® 480 SYBR Green Master (Roche) on an LightCycler® 480 detection system (Roche). Calculations were performed by a comparative method (2-ΔCT) using 18S as an internal control. For mtDNA analysis, total DNA was extracted with DNeasy blood and tissue kit (Qiagen). mtDNA was amplified using primers specific for the mitochondrial cytochrome c oxidase subunit 2 (COX2) gene and normalized to genomic DNA by amplification of the ribosomal protein s18 (rps18) nuclear gene. Primers were designed using the IDT software (IDT) and the primer sequences can be found in Table 1.
Protein extracts from tissue or C2C12 cells were obtained by lysis in ice-cold lysis buffer (150 mM NaCl, 10 mM Tris HCl (pH 7.4), 1 mM EDTA, 1 mM EGTA, 1% Triton X-100, 0.5% NP-40) supplemented with a cocktail of protease and phosphatase inhibitors (Roche). Protein content was determined by the Bradford protein assay (Biorad), and 50 μg proteins were run on SDS-PAGE under reducing conditions. The separated proteins were then electrophoretically transferred to a polyvinylidene difluoride membrane (Perkin-Elmer). […] The immunostaining was detected using horseradish peroxidase-conjugated anti-rabbit or anti-mouse immunoglobulin for 1 h at room temperature.
NAD^+ from skeletal muscle was quantified with a commercially available kit (BioVision) according to the manufacturer's instructions and as described before (Gomes et al., 2012).
It was shown above that decreased levels of NAD^+ associated with age invokes a SIRT1 dependent pseudohypoxic response that disrupts mitochondrial homeostasis. Therefore, artificially boosting NAD^+ levels in old mice should restore mitochondrial homeostasis by reducing HIF-1α levels and restoring the expression of mitochondrial-encoded ETC components. Administration of NMN, a compound recently shown to increase NAD^+ levels in a variety of tissues (Yoshino et al., 2011), to 6- and 22-month-old C57BL/6J mice for one week increased levels of cellular NAD^+ in both the young and old mice were by 2-fold. The boost in the treated 22-month-old mice resembled the untreated 6-month-olds (FIG. 17A).

## COC(=O)CNC(=O)C(=O)OC [DMOG, dimethyloxaloylglycine]
TFAM promoter
  full length TFAM promoter activity: reduces
TFAM promoter; in the absence of the c-Myc binding site
  TFAM promoter activity, c-Myc consensus sequence mutation: does not have an additive effect

## NC(=O)c1ccc[n+]([C@@H]2O[C@H](COP(=O)([O-])O)[C@@H](O)[C@H]2O)c1 [NMN, nicotinamide mononucleotide]
SIRT1 KO mice; qPCR
  ability of NMN to induce mitochondrially-encoded genes: lost in animals lacking SIRT1
SIRT1 KO mice; mitochondrial membrane potential (FIG. 10I)
  ability of NMN to improve mitochondrial function: lost in animals lacking SIRT1
[1]; gastrocnemius, qPCR, old mice
  expression of mitochondrial-encoded genes: restored
[1]; gastrocnemius, old mice
  ATP levels: increase
  COX activity: increase
  HIF-1α protein (immunoblot): reversed; also recorded: reduced the level of HIF-1α
  VHL protein (immunoblot): reversed the age-induced decline
[1]; old mice
  lactate levels in the skeletal muscle: suppressed the increase
[1]; skeletal muscle of old mice, immunoblot
  muscle wasting markers Atrogin-1 and MuRF1: completely reversed
[1]; skeletal muscle of old mice, qPCR
  expression of inflammation markers: completely reversed
[1]; soleus of old mice, immunoblot
  phosphorylation of AKT and IRS-1: increasing the phosphorylation
[1]; soleus of old mice
  age-induced insulin resistance in the skeletal muscle: reverse age-induced insulin resistance
[1]; young and old mice
  levels of cellular NAD+: 2 fold
